Laboratory results from patent publication US5567692A, “9-[(substituted glycyl) amido)]-6-demethyl-6-deoxytetracyclines” (priority 1995, dated 1996).
Where a name gives a salt, the structure may show the parent alone.

Columns and labels:
[1] = system: Staphylococcus aureus, (methicillin-susceptible); test: MIC range, recent clinical and veterinary isolates; type: cell-based; details: Staphylococcus aureus, 18 h, read-out: MIC Range
Streptococcus pneumoniae = test: MIC range, recent clinical and veterinary isolates; type: cell-based; details: 18 h, [10] isolates, read-out: MIC Range
[2] = system: E. coli MC 4100 TNIOC Tet B; test: microbe, parasite or virus in culture; type: cell-based; details: E. coli MC 4100 TNIOC Tet B
S. aureus IVES 2943 = test: MIC, agar dilution; type: cell-based; details: S. aureus IVES 2943; dihydrochloride
Anaerobic Gram(+)Cocci = test: MIC range, recent clinical and veterinary isolates; type: cell-based; details: 18 h; Anaerobic Gram(+)Cocci, [15] isolates; read-out: MIC Range
E. coli J3272 Tet C = test: microbe, parasite or virus in culture; type: cell-based; details: dihydrochloride
Escherichia coli = test: MIC range, recent clinical and veterinary isolates; type: cell-based; details: 18 h, read-out: MIC Range
Clostridium difficile = test: MIC range, recent clinical and veterinary isolates; type: cell-based; details: Clostridioides difficile, 18 h; Clostridium difficile, [12] isolates; read-out: MIC Range
Pseudomonas aeruginosa = test: MIC range, recent clinical and veterinary isolates; type: cell-based; details: 18 h, [10] isolates, read-out: MIC Range
Clostridium perfringens = test: microbe, parasite or virus in culture; type: cell-based; details: 18 h, read-out: MIC Range
Neisseria gonorrhoeae = test: MIC range, recent clinical and veterinary isolates; type: cell-based; details: 18 h, [14] isolates
[3] = system: Ps. aeruginosa ATCC 27853; test: MIC, agar dilution; type: cell-based; details: Ps. aeruginosa ATCC 27853; dihydrochloride
[4] = system: E. coli UBMS 89-2 Tet sens.; test: MIC, agar dilution; type: cell-based; details: E. coli UBMS 89-2 Tet sens.
S. marcescens FPOR 8733 = test: MIC, agar dilution; type: cell-based; details: dihydrochloride
Serratia marcescens = test: MIC range, recent clinical and veterinary isolates; type: cell-based; details: 18 h, [10] isolates, read-out: MIC Range
S. aureus NEMC 8769 = test: MIC, agar dilution; type: cell-based
Klebsiella pneumoniae = test: MIC range, recent clinical and veterinary isolates; type: cell-based; details: 18 h, [10] isolates
Citrobacter diversus = test: MIC range, recent clinical and veterinary isolates; type: cell-based; details: Citrobacter koseri, 18 h; Citrobacter diversus, [10] isolates; read-out: MIC Range
[5] = system: Staphylococcus Coagulase-negative, (methicillin-resistant); test: MIC range, recent clinical and veterinary isolates; type: cell-based; details: 18 h, [16] isolates
Enterobacter cloacae = test: MIC range, recent clinical and veterinary isolates; type: cell-based; details: 18 h, [10] isolates, read-out: MIC Range
Enterococcus faecalis = test: MIC range, recent clinical and veterinary isolates; type: cell-based; details: 18 h, read-out: MIC Range
Enterococcus 12201 = test: MIC, agar dilution; type: cell-based; details: Enterococcus 12201
E. coli J2175 = test: MIC, agar dilution; type: cell-based
Streptococcus pyogenes = test: MIC range, recent clinical and veterinary isolates; type: cell-based; details: 18 h, read-out: MIC Range
Proteus mirabilis = test: MIC range, recent clinical and veterinary isolates; type: cell-based; details: 18 h, read-out: MIC Range
[6] = system: Staphylococcus aureus strain Smith (tetracycline sensitive); test: Acute lethal infection in mice, S. aureus Smith; type: in vivo; details: mice, S. aureus Smith (Sens), 7 day survival, dihydrochloride, 10080 min
[7] = system: Pasturella multocida (Veterinary); test: MIC range, recent clinical and veterinary isolates; type: cell-based; details: 18 h, [17] isolates
S. aureus UBMS 90-3 = test: MIC, agar dilution; type: cell-based; details: Staphylococcus aureus, UBMS903, 18 h
[8] = system: S. aureus UBMS 88-5 Tet M; test: microbe, parasite or virus in culture; type: cell-based; details: Staphylococcus aureus, UBMS885TETM, 18 h
the ribosome = test: Reversibility of binding: bacterial growth after washing of the organism; type: cell-based; details: bacterial growth resumes when the compound is removed by washing
Description: Therefore, the ability of 9-[(N,N-dimethylglycyl)amido]-6-demethyl-6-deoxytetracycline to inhibit bacterial growth appears to be a direct consequence of its ability to inhibit protein synthesis at the ribosome level.

[9] = system: Salmonella choleraesuis (Veterinary); test: MIC range, recent clinical and veterinary isolates; type: cell-based; details: Salmonella enterica, 18 h, [15] isolates
[10] = system: Bordetella bronchiseptica (Veterinary); test: MIC range, recent clinical and veterinary isolates; type: cell-based; details: 18 h; Bordetella bronchiseptica (Veterinary), [10] isolates; read-out: MIC Range
[11] = system: Escherichia coli (Veterinary); test: MIC range, recent clinical and veterinary isolates; type: cell-based; details: 18 h, [15] isolates
E. faecalis ATCC 29212 = test: MIC, agar dilution; type: cell-based; details: E. faecalis ATCC 29212
S. aureus ATCC 29213 = test: MIC, agar dilution; type: cell-based; details: S. aureus ATCC 29213; dihydrochloride
Shigella spp. = test: MIC range, recent clinical and veterinary isolates; type: cell-based; details: 18 h, [14] isolates
Salmonella spp. = test: MIC range, recent clinical and veterinary isolates; type: cell-based; details: 18 h, [11] isolates
[12] = system: tetracycline sensitive and resistant Gram-positive and Gram-negative bacteria; test: In vitro antibacterial evaluation, summary in words; type: cell-based; details: summary of Tables I, II and V, dihydrochloride
[13] = system: Enterococcus spp, (Vancomycin-resistant); test: MIC range, recent clinical and veterinary isolates; type: cell-based; details: 18 h, [8] isolates
S. aureus SMITH (MP) = test: MIC, agar dilution; type: cell-based; details: Staphylococcus aureus, 18 h; S. aureus SMITH (MP); read-out: MIC
Bacteroides fragilis = test: MIC range, recent clinical and veterinary isolates; type: cell-based; details: 18 h, [11] isolates
Citrobacter freundii = test: MIC range, recent clinical and veterinary isolates; type: cell-based; details: 18 h, [10] isolates, read-out: MIC Range

In the case of CN(C)CC(=O)Nc1ccc2c(c1O)C(=O)C1=C(O)[C@]3(O)C(=O)C(C(N)=O)=C(O)[C@@H](N(C)C)C3CC1C2 (stereo partly drawn) [CC, [4S-(4alpha,12aalpha)]-4-(Dimethylamino)-9-[[(dimethylamino)acetyl]amino]-1,4,4a,5,5a,6,11,12a-octahydro-3,10,12,12a-tetrahydroxy-1,11-dioxo-2-naphthacenecarboxamide dihydrochloride], the MIC [1] is reported as 0.06 to 0.25 µg/mL, the MIC (Streptococcus pneumoniae) is reported as 0.03 to 0.5 µg/mL and the MIC [2] is reported as 0.25 µg/mL. The MIC (S. aureus IVES 2943) was 0.5 µg/mL, the MIC (Anaerobic Gram(+)Cocci) was 0.015 to 0.12 µg/mL and the MIC (E. coli J3272 Tet C) was 0.25 µg/mL. The MIC (Escherichia coli) was 0.25 to 4 µg/mL, the MIC (Clostridium difficile) was 0.06 to 0.12 µg/mL and the MIC (Pseudomonas aeruginosa) was 2 to 16 µg/mL. The MIC (Clostridium perfringens) was 0.03 to 2 µg/mL, the MIC (Neisseria gonorrhoeae) was 0.5 to 1 µg/mL and the MIC [3] was 4 µg/mL. It also gave an MIC [4] of 0.25 µg/mL, an MIC (S. marcescens FPOR 8733) of 2 µg/mL and an MIC (Serratia marcescens) of 2 to 8 µg/mL. For the same compound, the MIC (S. aureus NEMC 8769) was < 0.015 µg/mL, the MIC (Klebsiella pneumoniae) was 0.25 to 4 µg/mL and the MIC (Citrobacter diversus) was 0.25 to 1 µg/mL. For the same compound, the MIC [5] was 0.06 to 16 µg/mL, the MIC (Enterobacter cloacae) was 0.5 to 1 µg/mL and the MIC (Enterococcus faecalis) was 0.03 to 0.25 µg/mL. The MIC (Enterococcus 12201) was 0.03 µg/mL, the MIC (E. coli J2175) was 0.25 µg/mL and the MIC (Streptococcus pyogenes) was 0.06 to 0.12 µg/mL. The MIC (Proteus mirabilis) was 0.12 to 2 µg/mL, the ED50 ([6]; Intraveneous) was 0.46 mg/kg and the ED50 ([6]; Oral) was > 8 mg/kg. The MIC [7] was 0.03 to 0.25 µg/mL, the MIC (S. aureus UBMS 90-3) was 0.03 µg/mL and the MIC [8] was 0.03 µg/mL. The “binding to its target (the ribosome), reversibility” value (the ribosome) was “binds reversibly”, the MIC [9] was 0.5 to 8 µg/mL and the MIC [10] was 0.06 to 0.12 µg/mL. For the same compound, the MIC [11] was 0.25 to 4 µg/mL, the MIC (E. faecalis ATCC 29212) was 0.03 µg/mL and the MIC (S. aureus ATCC 29213) was < 0.015 µg/mL. For the same compound, the MIC (Shigella spp.) was 0.12 to 0.5 µg/mL, the MIC (Salmonella spp.) was 0.25 to 0.5 µg/mL and the “in vitro antibacterial activity (in words)” value [12] was “excellent in vitro activity”. The “in vitro antibacterial activity (in words)” value ([12]; listed as 9-[(N,N-dimethylglycyl)amido)]-6-demethyl-6-deoxytetracycline) was “potent in vitro antibacterial activity”, the MIC [13] was 0.03 to 0.12 µg/mL and the MIC (S. aureus SMITH (MP)) was 0.03 µg/mL. For the same compound, the MIC (Bacteroides fragilis) was 0.25 to 1 µg/mL and the MIC (Citrobacter freundii) was 0.5 to 8 µg/mL.
